# According to article PMC10051810, “Modification of the Linker Amino Acid in the Cell-Penetrating Peptide NickFect55 Leads to Enhanced pDNA Transfection for In Vivo Applications” (Pharmaceutics, 2023):
# Test system: BALB/c mice
# Assay: In vivo safety: ALAT and ASAT from blood, body weight
# Design: species or system mouse
# Description: For in vivo studies, the pLuc was mixed with the CPP at CR2 in MilliQ water, wherein the dose per animal was 2.5 mg/kg. After 30 min of incubation at room temperature, glucose was added to the complexes to obtain an isotonic solution with a final injection volume of 336 µL, which was immediately injected intravenously via the tail vein.
# In vivo safety was evaluated by measuring the alanine aminotransferase and the aspartate aminotransferase levels from the blood of mice injected with nanoparticles formed between NF55 analogues and pDNA. Additionally, the mice were weighed preinjection with the CPP-pDNA complexes and prior to sacrifice. […]
# 1 – Alanine aminotransferase 2 – Aspartate aminotransferase
# [1] = blood of mice injected i.v. with CPP/pDNA nanoparticles, pLuc 2.5 mg/kg, CR2
smiles,measurement,setting,value
CCCCCCCCCCCCCCCCCC(=O)N[C@@H](C)C(=O)NCC(=O)N[C@@H](Cc1ccc(O)cc1)C(=O)N[C@@H](CC(C)C)C(=O)N[C@@H](CC(C)C)C(=O)NCC(=O)NCCC[C@H](N)C(=O)N[C@H](C(=O)N[C@@H](CC(N)=O)C(=O)N[C@@H](CC(C)C)C(=O)N[C@@H](CCCCN)C(=O)N[C@@H](C)C(=O)N[C@@H](CC(C)C)C(=O)N[C@@H](C)C(=O)N[C@@H](C)C(=O)N[C@@H](CC(C)C)C(=O)N[C@@H](C)C(=O)N[C@@H](CCCCN)C(=O)N[C@@H](C)C(=O)N[C@H](C(=O)N[C@@H](CC(C)C)C(N)=O)[C@@H](C)CC)[C@@H](C)CC [NF55],ALAT (alanine aminotransferase),[1],629
same,ASAT (aspartate aminotransferase),[1],184
same,Pre-injection weight,weight of mice before injecting with CPP/pDNA nanoparticles,26.96 grams
same,Post-injection weight,weight of mice before sacrificing for ex vivo tissue analysis,25.35 grams
